{"source": "patent US10058525B2", "about": "“Application of chlorogenic acid in preparing medicines for treating lupus erythematosus” (SICHUAN JIUZHANG BIOLOGICAL SCIENCE AND TECHNOLOGY CO., LTD., priority 2015, dated 2018)", "type_in_all_cases": "in vivo, BALB/c mice", "key": {"ANA [1]": {"system": "ANA", "assay": "Serologic detection of ANA by immunofluorescence on HEp-2 cell sheets, serum of UV + LPS lupus model mice", "conditions": "chlorogenic acid high dose, ×200", "description": "The back of mice was shaved and acutely exposed to Ultraviolet of 2 h/d*3 d, with a distance of 30 cm. After exposure to UV, 2.5 mg/kg of LPS was administrated once by ip, and after 24 h, the model was successfully established; the mice in the normal control group received normal saline via ip. 24 h after injection of LPS (ip), medicines were given to the model mice by intragastric administration. Chlorogenic acid test groups received high, middle, and low doses of medicines, by intragastric administration at a respective dosage of 10 mg/kg*d, 20 mg/kg*d, and 40 mg/kg*d. The positive control group A received 2 mg/kg*d of artesunate by stomach perfusion, while the positive control group B received 1 mg/kg*d of prednisone by stomach perfusion. Mice in the model and normal control group all received 0.4 ml/mouse normal saline by gavage. After 15 days of administration, animals in each group were taken blood by separating eyeballs on days 14, 21, 28, and after cultured in water bath at 37° C. for 1 h, the blood sample was centrifugated at 2000 r/min for 5 min, to draw serum for use. On day 21, after blood collection, animals were sacrificed by dislocation, followed by collection of liver and kidney, and they were placed in fixative solutions of electron microscope and light microscrope, respectively. Serum of mice was diluted at 1:100 with special buffer solution of Shenzhen Hengjia, and then 200 μL of diluted serum was respectively added to the reactive tank with corresponding number, cultured in the incubator at 37° C. for 30 min, and washed with the buffer solution four times, 2 min for each time; 200 μL of diluted biotin goat anti-mouse IgG (1:100) was added, cultured in the incubator at 37° C. for 30 min, and then washed with the buffer solution four times, 2 min for each time; 100 μL of diluted HRP-avidin (1:100) was added, cultured in the incubator at 37° C. for 30 min, and then washed as mentioned-above; reactive solutions A and B were added till appearance of positive bands, then washed with the buffer solution. Compared with the standard bands of ENA polypeptide antibody spectrum in the same kit, if the positive bands appeared at 28/29,13.5 ku polypeptide; 15,16.5,38 kupolypeptide; 52 kupolypeptide and 47/48,45 kupolypeptide, that can be determined as anti-Sm, anti-Rib, anti-ssA, and anti-ssB positive antibody. Serum was diluted with PBS at 1:40, then 20-30 μL of diluted serum was dropped into the scrobiculus of HEp-2 cell sheets, each cell sheet for each group. In the process of dropping serum, it should be noted that the surface of cell sheet can not be touched. After addition of serum, cell sheet was placed in wet box and kept for 30 min at room temperature (25° C.). […]"}, "ANA [2]": {"system": "ANA", "assay": "Serologic detection of ANA by immunofluorescence on HEp-2 cell sheets, serum of UV + LPS lupus model mice", "design": "key: (+): positive; (−): negative; (++++): intenseintensity; (+++): stronger fluorescent intensity", "conditions": "day 14, intragastric", "description": "(§1) The back of mice was shaved and acutely exposed to Ultraviolet of 2 h/d*3 d, with a distance of 30 cm. After exposure to UV, 2.5 mg/kg of LPS was administrated once by ip, and after 24 h, the model was successfully established; the mice in the normal control group received normal saline via ip. 24 h after injection of LPS (ip), medicines were given to the model mice by intragastric administration. Chlorogenic acid test groups received high, middle, and low doses of medicines, by intragastric administration at a respective dosage of 10 mg/kg*d, 20 mg/kg*d, and 40 mg/kg*d. The positive control group A received 2 mg/kg*d of artesunate by stomach perfusion, while the positive control group B received 1 mg/kg*d of prednisone by stomach perfusion. Mice in the model and normal control group all received 0.4 ml/mouse normal saline by gavage. After 15 days of administration, animals in each group were taken blood by separating eyeballs on days 14, 21, 28, and after cultured in water bath at 37° C. for 1 h, the blood sample was centrifugated at 2000 r/min for 5 min, to draw serum for use. On day 21, after blood collection, animals were sacrificed by dislocation, followed by collection of liver and kidney, and they were placed in fixative solutions of electron microscope and light microscrope, respectively. Serum of mice was diluted at 1:100 with special buffer solution of Shenzhen Hengjia, and then 200 μL of diluted serum was respectively added to the reactive tank with corresponding number, cultured in the incubator at 37° C. for 30 min, and washed with the buffer solution four times, 2 min for each time; 200 μL of diluted biotin goat anti-mouse IgG (1:100) was added, cultured in the incubator at 37° C. for 30 min, and then washed with the buffer solution four times, 2 min for each time; 100 μL of diluted HRP-avidin (1:100) was added, cultured in the incubator at 37° C. for 30 min, and then washed as mentioned-above; reactive solutions A and B were added till appearance of positive bands, then washed with the buffer solution. Compared with the standard bands of ENA polypeptide antibody spectrum in the same kit, if the positive bands appeared at 28/29,13.5 ku polypeptide; 15,16.5,38 kupolypeptide; 52 kupolypeptide and 47/48,45 kupolypeptide, that can be determined as anti-Sm, anti-Rib, anti-ssA, and anti-ssB positive antibody. Serum was diluted with PBS at 1:40, then 20-30 μL of diluted serum was dropped into the scrobiculus of HEp-2 cell sheets, each cell sheet for each group. In the process of dropping serum, it should be noted that the surface of cell sheet can not be touched. After addition of serum, cell sheet was placed in wet box and kept for 30 min at room temperature (25° C.). After 30 min, the cell sheet was taken out, and serum was carefully washed out with PBS, then carefully washed twice with PBS, 5 min for each time; after washing, the remained PBS was removed by special absorbent paper of […] company (In this process, it should be noted that becoming dry of cell substrates will affect the results). 20-30 μL of diluted (PBS, 1:100) FITC goat anti-mouse IgG was added by dropping, and then incubated in wet box at room temperature for 30 min. After washing with PBS, steps were same to above. The remained PBS was removed by absorbent paper, and 1-2 drops of fluorescent mounting media were added to the cell sheet. The cover glass was mounted, observed under Olympus BH-2 universal microscope, and then photographed."}, "[3]": {"system": "ENA polypeptide antibodies (anti-Sm, anti-Rib, anti-ssA, anti-ssB)", "assay": "Serologic detection of ENA polypeptide antibodies by immunoblotting in serum of UV + LPS lupus model mice", "design": "key to Anti-Rib: (+): positive; (−): negative; key to Anti-Sm / Anti-ssA / Anti-ssB: (+): positive; (−): negative; (++++): intenseintensity; (+++): stronger fluorescent intensity", "conditions": "for Anti-Rib / Anti-Sm / Anti-ssA / Anti-ssB: intragastric; for ENA polypeptide antibodies found positive (FIG. 1): treated 14 days", "description": "as §1"}, "[4]": {"conditions": "day 14, chlorogenic acid high dose"}, "[5]": {"conditions": "day 14, chlorogenic acid low dose"}, "[6]": {"conditions": "day 14, chlorogenic acid middle dose"}, "[7]": {"conditions": "day 21, chlorogenic acid high dose"}, "[8]": {"conditions": "day 21, chlorogenic acid low dose"}, "[9]": {"conditions": "day 21, chlorogenic acid middle dose"}, "[10]": {"conditions": "day 28, chlorogenic acid high dose"}, "[11]": {"conditions": "day 28, chlorogenic acid low dose"}, "[12]": {"conditions": "day 28, chlorogenic acid middle dose"}}}
{"smiles": "O=C(/C=C/c1ccc(O)c(O)c1)O[C@@H]1C[C@](O)(C(=O)O)C[C@@H](O)[C@H]1O", "note": "[Chlorogenic acid, 3-O-caffeoylquinic acid]", "values": [{"measurement": "fluorescence intensity of ANA (FIG. 2)", "setting": "ANA [1]; 14 days", "value": "decreases"}, {"measurement": "fluorescence intensity of ANA (FIG. 3)", "setting": "ANA [1]; 21 days", "value": "decreases"}, {"measurement": "fluorescence intensity of ANA (FIG. 4)", "setting": "ANA [1]; 28 days", "value": "decreases"}, {"measurement": "ANA", "setting": "ANA [2]; chlorogenic acid high dose", "value": "(+++)"}, {"measurement": "ANA", "setting": "ANA [2]; chlorogenic acid low dose", "value": "(++++)"}, {"measurement": "ANA", "setting": "ANA [2]; chlorogenic acid middle dose", "value": "(+++)"}, {"measurement": "Anti-Rib", "setting": "[3]; [4]", "value": "(+)"}, {"measurement": "Anti-Sm", "setting": "[3]; [4]", "value": "(+)"}, {"measurement": "Anti-ssA", "setting": "[3]; [4]", "value": "(+)"}, {"measurement": "Anti-ssB", "setting": "[3]; [4]", "value": "(+)"}, {"measurement": "Anti-Rib", "setting": "[3]; [5]", "value": "(+)"}, {"measurement": "Anti-Sm", "setting": "[3]; [5]", "value": "(+)"}, {"measurement": "Anti-ssA", "setting": "[3]; [5]", "value": "(+)"}, {"measurement": "Anti-ssB", "setting": "[3]; [5]", "value": "(+)"}, {"measurement": "Anti-Rib", "setting": "[3]; [6]", "value": "(+)"}, {"measurement": "Anti-Sm", "setting": "[3]; [6]", "value": "(+)"}, {"measurement": "Anti-ssA", "setting": "[3]; [6]", "value": "(+)"}, {"measurement": "Anti-ssB", "setting": "[3]; [6]", "value": "(+)"}, {"measurement": "Anti-Rib", "setting": "[3]; [7]", "value": "(+)"}, {"measurement": "Anti-Sm", "setting": "[3]; [7]", "value": "(+)"}, {"measurement": "Anti-ssA", "setting": "[3]; [7]", "value": "(+)"}, {"measurement": "Anti-ssB", "setting": "[3]; [7]", "value": "(+)"}, {"measurement": "Anti-Rib", "setting": "[3]; [8]", "value": "(+)"}, {"measurement": "Anti-Sm", "setting": "[3]; [8]", "value": "(+)"}, {"measurement": "Anti-ssA", "setting": "[3]; [8]", "value": "(+)"}, {"measurement": "Anti-ssB", "setting": "[3]; [8]", "value": "(+)"}, {"measurement": "Anti-Rib", "setting": "[3]; [9]", "value": "(+)"}, {"measurement": "Anti-Sm", "setting": "[3]; [9]", "value": "(+)"}, {"measurement": "Anti-ssA", "setting": "[3]; [9]", "value": "(+)"}, {"measurement": "Anti-ssB", "setting": "[3]; [9]", "value": "(+)"}, {"measurement": "Anti-Rib", "setting": "[3]; [10]", "value": "(−)"}, {"measurement": "Anti-Sm", "setting": "[3]; [10]", "value": "(+)"}, {"measurement": "Anti-ssA", "setting": "[3]; [10]", "value": "(−)"}, {"measurement": "Anti-ssB", "setting": "[3]; [10]", "value": "(−)"}, {"measurement": "Anti-Rib", "setting": "[3]; [11]", "value": "(+)"}, {"measurement": "Anti-Sm", "setting": "[3]; [11]", "value": "(+)"}, {"measurement": "Anti-ssA", "setting": "[3]; [11]", "value": "(+)"}, {"measurement": "Anti-ssB", "setting": "[3]; [11]", "value": "(+)"}, {"measurement": "Anti-Rib", "setting": "[3]; [12]", "value": "(−)"}, {"measurement": "Anti-Sm", "setting": "[3]; [12]", "value": "(+)"}, {"measurement": "Anti-ssA", "setting": "[3]; [12]", "value": "(+)"}, {"measurement": "Anti-ssB", "setting": "[3]; [12]", "value": "(+)"}, {"measurement": "ENA polypeptide antibodies found positive (FIG. 1)", "setting": "[3]; high dose of chlorogenic acid", "value": "anti-Sm, anti-ssA and anti-ssB bodies are positive"}, {"measurement": "ENA polypeptide antibodies found positive (FIG. 1)", "setting": "[3]; low dose of chlorogenic acid", "value": "anti-Sm, anti-ssA and anti-ssB bodies are positive"}, {"measurement": "ENA polypeptide antibodies found positive (FIG. 1)", "setting": "[3]; middle dose of chlorogenic acid", "value": "anti-Sm, anti-Rib, anti-ssA and anti-ssB bodies are positive"}]}
